Experimental data: patent US20140024720A1, “PHARMACEUTICAL COMPOSITION CONTAINING CYCLOBENZAPRINE SUITABLE TO INTRANASAL ADMINISTRATION” (Campiglo Consulting SRL, priority 2011, published 2014)
Counter-ions that a name gives are not always drawn. Like-named read-outs stand apart in the source and are kept apart here.

Legend:
[1] = cited from earlier work
in vivo = conditions: rabbit; for AUC(0-inf) / AUC(0-t) / Cmax / Tmax / half-life: male, New Zealand albino, plasma
Method: The plasma levels of cyclobenzaprine (CBZ) were determined after a single intranasal dose of 1.5 mg/kg in a volume of 10 μl, and 3.0 mg/kg in a volume of 20 μl, and after a single oral dose of 1.5 mg/kg in New Zealand albino male rabbits.
1. The oral administration was performed with a 0.15% solution, the intranasal administration with a 15% solution.
2. Six male animals/group were treated with a single dose by intranasal or oral route.
3. Fifteen minutes before the drug administration the central artery of the ear was cannulated with a 25-gauge needle catheter and for each animal 7 blood collections at time 0 (TO, before drug administration) and at 15, 30, 60, 90, 120, 180 minutes after drug administration were performed. Three mL of blood sample were collected in heparinized tubes and the volume replaced with a Ringer-Lactate solution. The plasma samples were obtained from blood samples by centrifugation at 3000 g for 5 min. The plasma samples were be stored at −20±2° C. until the LC/MS/MS analysis.
4. Rabbit plasma concentrations of CBZ were determined using a validated LC-MS/MS method in the calibration range of 0.25-300 ng/mL.
Aliquots of 250 μL of rabbit plasma were spiked with 5 μL of internal standard (IS) solution (containing approximately 5000 ng/mL of IS, Imipramine Hydrochloride) in water:methanol (50/50, v/v), after vortex-mixing, 250 μL of borate buffer were added. After vortex-mixing, 3.5 mL of hexane were added. After vortex-mixing for 10 minutes and centrifugation at 10.000 rpm at +4° C. for 10 minutes, aliquots of 3 mL of organic phase were transferred into a single glass tube and dried under vacuum at 40° C. using a Büchi vacuum system. The residues were re-constituted with 100 μL of 20 Mm ammonium acetate buffer solution, 0.1%:acetonitrile (50/50, v/v) solution. The tubes were then capped, vortex-mixed and centrifugated at 4100 rpm at +4° C. for 10 minutes. The final extracts were transferred into an autosampler vial and 4 μL were injected into the LC-MS/MS system.
Calibration curves plot the ratio of the area of the compound and the IS (y) against the analyte concentration (x). A weighted linear regression function (1/x) is used to fit calibration lines and consequently to calculate CBZ concentrations. The lower and upper limits of quantification are 0.25 and 300 ng/mL of plasma samples.

[2] = pH higher than 7.4, opalescence formation
[3] = inhaled or intranasal, 1.5 mg/kg

CN(C)CCC=C1c2ccccc2C=Cc2ccccc21 [Cyclobenzaprine, 3-(5H-dibenzo[a,d]cyclo-epten-5-yliden)-N,N-dimethyl-1-propanamine hydrochloride]
plasmatic half time ([1]; absorbed per os, range 8-37 hours): 18 h | time until effect of a single administration is shown ([1]; after oral taking): one | duration of effect of a single administration ([1]; oral taking): ≥ 12 h | tonicity (10% aqueous solution): ipertonic | tonicity (15% aqueous solution): ipertonic | NaCl equivalent (aqueous solution containing 5% cyclobenzaprine hydrochloride): 0.88 g-eq di NaCl | osmolarity (aqueous solution containing 5% cyclobenzaprine hydrochloride, practically isotonic): 400 mOsmol/L | AUC(0-inf) (in vivo; [3]): 65.8 ng·h/mL | AUC(0-t) (in vivo; [3]): 60.1 ng·h/mL | Cmax (in vivo; [3]): 69.3 ng/mL | Tmax (in vivo; [3]): 30 min | half-life (in vivo; [3]): 49.3 min | AUC(0-inf) (in vivo; inhaled or intranasal, 3 mg/kg): 65.6 ng·h/mL | AUC(0-t) (in vivo; inhaled or intranasal, 3 mg/kg): 54.6 ng·h/mL | Cmax (in vivo; inhaled or intranasal, 3 mg/kg): 65.1 ng/mL | Tmax (in vivo; inhaled or intranasal, 3 mg/kg): 30 min | half-life (in vivo; inhaled or intranasal, 3 mg/kg): 93.9 min | AUC(0-inf) (in vivo; po, 1.5 mg/kg): 3.44 ng·h/mL | AUC(0-t) (in vivo; po, 1.5 mg/kg): 2.08 ng·h/mL | Cmax (in vivo; po, 1.5 mg/kg): 1.28 ng/mL | Tmax (in vivo; po, 1.5 mg/kg): 30 min | half-life (in vivo; po, 1.5 mg/kg): 124 min | rate of absorption by intranasal route compared with oral route (in vivo): higher | absorption by intranasal route (in vivo; intranasal): well absorbed | λz (in vivo; intranasal 1.5 mg/kg, 15% solution): 0.940 h⁻¹ | λz (in vivo; intranasal 3.0 mg/kg, 15% solution): 0.452 h⁻¹ | dose dependence of Cmax and AUC by intranasal route (in vivo; intranasal 1.5 and 3.0 mg/kg): linear with the dose | λz (in vivo; oral 1.5 mg/kg, 0.15% solution): 0.361 h⁻¹ | solubility of cyclobenzaprine base in the buffer solution [2]: not soluble
